Assay: Paclitaxel composition droplets immersed in PBS for 72 hours (FIG. 3)
Type: physicochemical
Conditions: 72 hours in PBS; DENA and DMSO present as solubilizing agents
Description: FIG. 3 is two photographs comparing three drug compositions formulated in accordance with the invention. Each composition comprises the drug paclitaxel formulated with different compositional ratios of solvents, namely a first solvent comprising a mixture of 70% DENA and 30% DMSO and a second solvent comprising 70% castor oil and 30% soybean oil. The left-hand composition comprises 70% of the first solvent and 30% of the second solvent; the middle composition comprises 60% of the first solvent and 40% of the second solvent; and the right-hand composition comprises 50% of the first solvent and 50% of the second solvent.
In the example of FIG. 3, the release profile of a composition 10 comprising the water-insoluble lipophilic drug paclitaxel was investigated. Paclitaxel is a well-known chemotherapy agent. FIG. 3 compares three drug compositions comprising paclitaxel formulated with different compositional ratios of first and second solvents 14, 18. The concentration of paclitaxel is maintained at 20 weight percent in first solvent 14. In this example, first solvent 14 comprises a mixture of 70% DENA and 30% DMSO and second solvent 18 comprises 70% castor oil and 30% soybean oil. […]

CC(=O)O[C@H]1C(=O)[C@@]2(C)[C@H]([C@H](OC(=O)c3ccccc3)[C@]3(O)C[C@H](OC(=O)[C@H](O)[C@@H](NC(=O)c4ccccc4)c4ccccc4)C(C)=C1C3(C)C)[C@]1(OC(C)=O)CO[C@@H]1C[C@@H]2O [paclitaxel]
paclitaxel precipitate visually detected in the PBS: No white precipitate
